The structures appear in SMILES notation.

Common to all, as to type: biochemical
In assay [1] the target is CDK6/Cyclin D1 (Homo sapiens (Human), UniProt Q00534). The assay is described as follows: CDK6/Cyclin D1 Mobility Shift Assay (MSA), Ki by Morrison equation. The following applies: geometric mean, tested in CDK6/D1 Ki assay using MSA. From the text:
CDK6/Cyclin D1 Mobility Shift Assay (MSA)
The purpose of the CDK6/Cyclin D1 assay is to evaluate the inhibition (% inhibition, Kiapp and Ki values) in the presence of small molecule inhibitors by using a fluorescence based microfluidic mobility shift assay. CDK6/Cyclin D1 catalyzes the production of ADP from ATP that accompanies the phosphoryl transfer to the substrate peptide 5-FAM-Dyrktide The mobility shift assay electrophoretically separates the fluorescently labeled peptides (substrate and phosphorylated product) following the kinase reaction. Both substrate and product are measured and the ratio of these values is used to generate % conversion of substrate to product by the LabChip EZ Reader. Typical reaction solutions contained 2% DMSO (±inhibitor), 2% glycerol, 10 mM MgCl2, 1 mM DTT, 3.5 mM ATP, 0.005% Tween 20 (TW-20), 3 μM 5-FAM-Dyrktide, 4 nM activated CDK6/Cyclin D1 in 40 mM HEPES buffer at pH 7.5. […]
For all the CDK4 and CDK6 assays the Ki constant for compounds were calculated for each enzyme using the Morrison equation. Fractional activity was measured at different compound concentrations, [I] and the data fit to the Morrison equation where [E] is the enzyme concentration, [S] is the ATP concentration, and Kn^App is the apparent Km for ATP for each enzyme under each assay format. […]

Assay [2] has as its target CDK4/Cyclin D1 (Homo sapiens (Human), UniProt P11802). The assay is described as follows: CDK4/Cyclin D1 CHEF assay (Chelation-Enhanced Fluorescence), Ki by Morrison equation. To be noted: geometric mean; tested in CHEF Assay; read-out: CDK4/Cyclin D1 GMean Ki. From the text:
(§1) In Vitro Purified Enzyme Assays to Determine Potency for CDKs
(§2) CDK4/Cyclin D1 and CDK6/Cylcin D3 CHEF Assay
(§3) The Chelation-Enhanced Fluorescence (CHEF) monitors the phosphorylation state in real time where the level of fluorescence is directly proportional to the amount of phosphorylated substrate. CHEF exploits a synthetic α-amino acid with a side chain bearing an 8-hydroxyquinoline derivative (sulfonamido-oxine, Sox) which, upon coordination to Mg(II), relays information on the phosphorylation state of a proximal serine, threonine or tyrosine residue in peptide-based kinase substrates. Phosphorylation of a specific peptide (Catalog # AQT0258) from AssayQuant Technologies results in an increase in fluorescence at the excitation and emission wavelengths of 360 nm Ex/485 nm Em.
(§4) Examples along with DMSO (negative) and Palbociclib (positive) controls were added to 384-well plates at 100-fold their final concentrations followed by the addition of 10 nM CDK4/Cyclin D1 (LJIC-2007F1) or 10 nM CDK6/Cyclin D3 (LJIC-2009H2) for a 20 minute pre-incubation in assay buffer containing 40 mM HEPES, 1 mM Dithiothreito (DTT, 10 mM MgCl2, 1% Glycerol, 0.1% BSA. Enzyme reactions were initiated by the addition of AssayQuant Technologies peptide and ATP substrates (10 μM CHEF peptide (Catalog # AQT0258), 2 mM ATP) and allowed to proceed for 2 hours followed by fluorescence read of the reaction. Ki determinations were made from a plot of the fractional velocity as a function of inhibitor concentration fit to the Morrison equation with the enzyme concentration as a variable.
(§5) For all the CDK4 and CDK6 assays the Ki constant for compounds were calculated for each enzyme using the Morrison equation. Fractional activity was measured at different compound concentrations, [I] and the data fit to the Morrison equation where [E] is the enzyme concentration, [S] is the ATP concentration, and Kn^App is the apparent Km for ATP for each enzyme under each assay format. With the Ki calculations dependent on the assay conditions for each assay format the resulting Ki becomes assay independent with a strong one to one correlation of Ki values for compounds tested in both assay formats.
(§6) In Table 2, assay data are presented to two (2) significant figures as the geometric mean (Ki) based on the number of replicates listed (Number). A cell having NA means there was no data for that Example in the indicated assay.

Assay [3] deals with CDK6/Cyclin D3 (Homo sapiens (Human), UniProt Q00534). The experiment in a line: CDK6/Cyclin D3 CHEF assay (Chelation-Enhanced Fluorescence), Ki by Morrison equation. To be noted: geometric mean; tested in CHEF Assay; read-out: CDK6/Cyclin D3: GMean Ki.
Sequence of CDK6/Cyclin D3 (Q00534 whole entry): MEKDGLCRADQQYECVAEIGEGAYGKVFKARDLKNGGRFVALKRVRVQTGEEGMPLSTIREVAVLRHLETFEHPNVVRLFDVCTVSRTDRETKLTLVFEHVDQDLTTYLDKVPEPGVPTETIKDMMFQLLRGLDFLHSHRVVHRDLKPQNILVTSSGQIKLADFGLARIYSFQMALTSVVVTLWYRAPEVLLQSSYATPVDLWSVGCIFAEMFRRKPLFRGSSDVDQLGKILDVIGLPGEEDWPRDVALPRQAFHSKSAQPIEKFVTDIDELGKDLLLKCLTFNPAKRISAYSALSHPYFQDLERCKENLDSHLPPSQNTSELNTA
Sequence of CDK6/Cyclin D3 (P30281 whole entry partner): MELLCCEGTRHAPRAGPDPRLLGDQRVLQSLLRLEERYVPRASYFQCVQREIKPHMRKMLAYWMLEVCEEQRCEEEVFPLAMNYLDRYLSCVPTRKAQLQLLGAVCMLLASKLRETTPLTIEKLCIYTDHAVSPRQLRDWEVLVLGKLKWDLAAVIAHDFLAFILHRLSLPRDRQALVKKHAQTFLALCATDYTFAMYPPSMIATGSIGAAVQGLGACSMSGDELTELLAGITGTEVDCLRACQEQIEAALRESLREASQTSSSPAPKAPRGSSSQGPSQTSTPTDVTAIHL
Source text: as §1, §2, §3, §4, §5, §6

Sequence of CDK4/Cyclin D1 (P11802 whole entry): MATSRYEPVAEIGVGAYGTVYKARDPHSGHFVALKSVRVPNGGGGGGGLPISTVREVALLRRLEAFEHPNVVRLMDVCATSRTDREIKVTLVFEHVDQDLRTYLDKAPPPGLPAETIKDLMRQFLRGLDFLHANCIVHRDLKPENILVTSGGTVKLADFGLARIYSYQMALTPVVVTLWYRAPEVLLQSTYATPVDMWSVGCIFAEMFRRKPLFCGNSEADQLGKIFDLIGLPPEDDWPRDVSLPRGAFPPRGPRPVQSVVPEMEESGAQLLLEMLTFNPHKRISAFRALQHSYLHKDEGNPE
Sequence of CDK4/Cyclin D1 (P24385 whole entry partner): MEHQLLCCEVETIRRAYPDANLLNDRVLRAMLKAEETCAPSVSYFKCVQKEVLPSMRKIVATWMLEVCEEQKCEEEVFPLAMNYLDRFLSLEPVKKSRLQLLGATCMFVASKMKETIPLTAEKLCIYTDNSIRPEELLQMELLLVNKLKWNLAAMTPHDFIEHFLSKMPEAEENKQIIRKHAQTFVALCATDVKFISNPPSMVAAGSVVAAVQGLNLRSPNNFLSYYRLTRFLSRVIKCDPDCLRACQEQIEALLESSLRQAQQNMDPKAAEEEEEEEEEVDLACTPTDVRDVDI
Sequence of CDK6/Cyclin D1 (Q00534 whole entry): as the sequence (Q00534 whole entry) above
Sequence of CDK6/Cyclin D1 (P24385 whole entry partner): as the sequence (P24385 whole entry partner) above

On to `CC(=O)c1c(C)c2cnc(N[C@@H]3CCOC[C@H]3O)nc2n([C@@H]2CCC[C@]2(C)F)c1=O` (mixture of isomers) [Example 17, 6-Acetyl-8-[(1R,2S)-2-fluoro-2-methylcyclopentyl]-2-{[(3S,4R)-3-hydroxytetrahydro-2H-pyran-4-yl]amino}-5-methylpyrido[2,3-d]pyrimidin-7(8H)-one and 6-Acetyl-8-[(1S,2R)-2-fluoro-2-methylcyclopentyl]-2-{[(3S,4R)-3-hydroxytetrahydro-2H-pyran-4-yl]amino}-5-methylpyrido[2,3-d]pyrimidin-7(8H)-one], for which, in assay [1], the “CDK6/Cyclin D3: GMean Ki (nM) (footnote c: CDK6/D1 Ki)” value is listed as 10.5^c nM.
On to `CC(=O)c1c(C)c2cnc(N[C@@H]3CCOC[C@H]3O)nc2n([C@H]2CCC[C@]2(C)F)c1=O` (single isomer, unassigned) [Example 22], for which the Ki in assay [1] (read-out: CDK6/Cyclin D3: GMean Ki (nM) (footnote c: CDK6/D1 Ki)) came to 2.8 nM.
Turning to `CC(=O)c1c(C)c2cnc(N[C@@H]3CCOC[C@H]3O)nc2n(C2CC(C)(C)C2)c1=O` [Example 19, 6-Acetyl-8-(3,3-dimethylcyclobutyl)-2-{[(3S,4R)-3-hydroxytetrahydro-2H-pyran-4-yl]amino}-5-methylpyrido[2,3-d]pyrimidin-7(8H)-one], the Ki was 4.5 nM in assay [2] and 4.2 nM in assay [3].
In the case of `CC(=O)c1c(C)c2cnc(N[C@@H]3CCOC[C@H]3O)nc2n([C@H]2CC[C@@H](O)CC2)c1=O` [Example 20, 6-acetyl-8-(cis-4-hydroxycyclohexyl)-2-{[(3S,4R)-3-hydroxytetrahydro-2H-pyran-4-yl]amino}-5-methylpyrido[2,3-d]pyrimidin-7(8H)-one], the figures for the Ki in assay [2] and in assay [3] were 54 nM and 58 nM, respectively.
For `CC(=O)c1c(C)c2cnc(N[C@@H]3CCOC[C@H]3O)nc2n([C@H]2C[C@H](O)C2)c1=O` [Example 21, 6-acetyl-8-(trans-3-hydroxycyclobutyl)-2-{[(3S,4R)-3-hydroxytetrahydro-2H-pyran-4-yl]amino}-5-methylpyrido[2,3-d]pyrimidin-7(8H)-one] the same measures were 13 nM and 13 nM.
The like results for `CC(=O)c1c(C)c2cnc(N[C@@H]3CCOC[C@H]3O)nc2n([C@H]2CC[C@H](N)CC2)c1=O` [Example 24] were, in that order, 13 nM and 24 nM.
Take `CC(=O)c1c(C)c2cnc(N[C@@H]3CCOC[C@H]3O)nc2n([C@H]2CC[C@H](N(C)C)CC2)c1=O` [Example 25]: the Ki in assay [2] was 36 nM; in assay [3], 110 nM.
`CC(=O)c1c(C)c2cnc(N[C@@H]3CCOC[C@H]3O)nc2n([C@H]2CCN(C)C2)c1=O` [Example 26]: the Ki in assay [2] was 13 nM; in assay [3], 39 nM.
Regarding `CC(=O)c1c(C)c2cnc(N[C@@H]3CCOC[C@H]3O)nc2n([C@@H]2CCNC2)c1=O` [Example 27], the Ki in assay [2] was determined as 9.9 nM; in assay [3], 25 nM.
For `COCCN1CC2(CC(n3c(=O)c(C(C)=O)c(C)c4cnc(N[C@@H]5CCOC[C@H]5O)nc43)C2)C1` [Example 28], the Ki in assay [2] came out at 10 nM; in assay [3], 36 nM.
Consider `CC(=O)c1c(C)c2cnc(N[C@@H]3CCOC[C@H]3O)nc2n(C2CC3(C2)CN(CC(F)F)C3)c1=O` [Example 29, 6-acetyl-8-[2-(2,2-difluoroethyl)-2-azaspiro[3.3]heptan-6-yl]-2-{[(3S,4R)-3-hydroxytetrahydro-2H-pyran-4-yl]amino}-5-methylpyrido[2,3-d]pyrimidin-7(8H)-one], for which the Ki came out at 1.9 nM in assay [2] and 4.9 nM in assay [3].
In the case of `CC(=O)c1c(C)c2cnc(N[C@H]3CCOC[C@@H]3O)nc2n(C2CCCC2)c1=O` [Example 30, 6-acetyl-8-cyclopentyl-2-{[(3R,4S)-3-hydroxytetrahydro-2H-pyran-4-yl]amino}-5-methylpyrido[2,3-d]pyrimidin-7(8H)-one], the values for the Ki in assay [2] and in assay [3] were 430 nM and more than 570 nM, respectively.
Take `CC(=O)c1c(C)c2cnc(N[C@@H]3CCOC[C@H]3O)nc2n([C@H]2CCOC2)c1=O` [Example 31]: the Ki in assay [2] was 27 nM; in assay [3], 29 nM.
For `CC(=O)c1c(C)c2cnc(N[C@@H]3CCOC[C@H]3O)nc2n(C2CCNCC2)c1=O` [Example 32] the same measures were 16 nM and 27 nM.
The like results for `CC(=O)c1c(C)c2cnc(N[C@H]3CCOC[C@@H]3O)cc2n(C2CCCC2)c1=O` [Example 33, 3-acetyl-1-cyclopentyl-7-{[(3R,4S)-3-hydroxytetrahydro-2H-pyran-4-yl]amino}-4-methyl-1,6-naphthyridin-2(1H)-one] were, in that order, 62 nM and 130 nM.
With `CC(=O)c1c(C)c2cnc(N[C@@H]3CCOC[C@H]3O)nc2n(C2CC2)c1=O` [Example 34], the Ki in assay [2] was 52 nM; in assay [3] it was 85 nM.

These data come from patent US11203594B2, “Anti-proliferative agents for treating PAH” (Pfizer Inc., priority 2019, dated 2021).
